Like-named read-outs stand apart in the source and are kept apart here.
Key:
GSK3β = GSK3β (Homo sapiens, UniProt P49841); test: GSK3β kinase assay (Caliper LabChip3000, fluoresceinated peptide substrate); format: biochemical
How it was run: (§1)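 Kinase reactions ran at room temperature for 20 hours, then were stopped with EDTA. Phosphorylated product and unphosphorylated substrate were separated electrophoretically on a LabChip3000, and IC50s came from non-linear regression over eleven compound concentrations.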

pTau = pTau assay (method not described); format: cell-based
GSK3α = GSK3α (Homo sapiens, UniProt P49840); test: biochemical
Sequence of GSK3α (P49840 whole entry, species assumed): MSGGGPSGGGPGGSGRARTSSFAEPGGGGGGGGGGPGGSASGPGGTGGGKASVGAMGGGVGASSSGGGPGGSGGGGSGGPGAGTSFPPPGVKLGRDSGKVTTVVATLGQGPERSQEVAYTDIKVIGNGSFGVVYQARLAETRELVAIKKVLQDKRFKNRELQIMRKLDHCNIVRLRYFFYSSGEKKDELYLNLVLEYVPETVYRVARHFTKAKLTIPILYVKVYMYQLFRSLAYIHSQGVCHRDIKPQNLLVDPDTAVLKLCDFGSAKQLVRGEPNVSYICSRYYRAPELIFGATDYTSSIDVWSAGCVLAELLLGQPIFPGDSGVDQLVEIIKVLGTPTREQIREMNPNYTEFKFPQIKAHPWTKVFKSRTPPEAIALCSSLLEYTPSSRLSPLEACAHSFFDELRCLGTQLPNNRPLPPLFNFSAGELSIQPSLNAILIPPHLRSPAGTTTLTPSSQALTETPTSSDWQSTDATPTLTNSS
How it was run: as §1

[1] = first value of the cell, 250 pM enzyme, 20 uM ATP, 20 hours at room temperature, read-out: GSK3β/α (nM): GSK3β IC50
[2] = second value of the cell, 250 pM enzyme, 20 uM ATP, 20 hours at room temperature, read-out: GSK3β/α (nM): GSK3α IC50

Sequence of GSK3β (P49841 whole entry, species assumed): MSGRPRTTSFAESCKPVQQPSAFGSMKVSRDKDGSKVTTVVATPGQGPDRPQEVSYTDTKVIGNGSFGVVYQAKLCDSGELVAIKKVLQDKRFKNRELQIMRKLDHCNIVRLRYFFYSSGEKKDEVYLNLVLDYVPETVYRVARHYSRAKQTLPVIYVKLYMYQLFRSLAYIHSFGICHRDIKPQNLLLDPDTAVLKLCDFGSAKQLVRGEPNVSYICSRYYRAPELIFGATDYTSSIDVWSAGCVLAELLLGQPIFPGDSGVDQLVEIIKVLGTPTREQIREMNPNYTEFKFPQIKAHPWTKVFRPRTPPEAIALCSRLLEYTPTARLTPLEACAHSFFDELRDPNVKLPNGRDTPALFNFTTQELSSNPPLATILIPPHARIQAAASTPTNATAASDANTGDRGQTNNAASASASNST

| Structure (SMILES) | IC50 (GSK3β; [1]) [nM] | IC50 (pTau; read-out: pTau) [nM] | IC50 (GSK3α; [2]) [nM] | IC50 (GSK3β) [nM] | IC50 (pTau; read-out: pTau (nM)) [nM] | IC50 (GSK3α) [nM] |
| --- | --- | --- | --- | --- | --- | --- |
| CC(C)C(=O)Nc1cc(C(=O)Nc2cnccc2C(F)(F)c2ccccc2)ccn1 [Example 198, N-(4-(difluoro(phenyl)methyl)pyridin-3-yl)-2-isobutyramidoisonicotinamide] | 390 | 9900 | 230 |  |  |  |
| CC(C)C(=O)Nc1cc(C(=O)Nc2cnccc2C(F)c2ccccc2)ccn1 (stereo not drawn) [Example 199, N-(4-(fluoro(phenyl)methyl)pyridin-3-yl)-2-isobutyramidoisonicotinamide] | 10 | 720 | 12 |  |  |  |
| C=C(c1ccccc1)c1ccncc1NC(=O)c1ccnc(NC(=O)C(C)C)c1 [Example 200, 2-Isobutyramido-N-(4-(1-phenylvinyl)pyridine-3-yl)isonicotinamide] | 6.1 | 510 | 4.7 |  |  |  |
| CC(C)C(=O)Nc1cc(C(=O)Nc2cnccc2OCC2(C)CC2)ccn1 [Example 201, 2-isobutyramido-N-(4-((1-methylcyclopropyl)methoxy)pyridin-3-yl)isonicotinamide] | 1.1 | 26 | 0.4 |  |  |  |
| CC(C)C(=O)Nc1cc(C(=O)Nc2cnccc2OCC(C)(F)F)ccn1 [Example 202, N-(4-(2,2-Difluoropropoxy)pyridin-3-yl)-2-isobutyramidoisonicotinamide] |  |  |  | 1 | 50 | 0.46 |
| CC(C)C(=O)Nc1cc(C(=O)Nc2cnccc2OCC(F)(F)F)ccn1 [Example 203, 2-Isobutyramido-N-(4-(2,2,2-trifluoroethoxy)pyridin-3-yl)isonicotinamide] |  | 70 | 0.35 | 0.72 |  |  |
| CC(C)C(=O)Nc1cc(C(=O)Nc2cnccc2OCC(F)F)ccn1 [Example 204, N-(4-(2,2-Difluoroethoxy)pyridin-3-yl)-2-isobutyramidoisonicotinamide] |  | 41 | 0.97 | 1.8 |  |  |
| CC(C)(F)C(=O)Nc1cc(C(=O)Nc2cnccc2-c2ccccc2)ccn1 [Example 205, 2-(2-Fluoro-2-methylpropanamido)-N-(4-phenylpyridin-3-yl)isonicotinamide] |  |  | 52 | 49 | 5100 |  |
| CC(C)C(=O)Nc1cc(C(=O)Nc2cnccc2N2CCC(F)(F)CC2)c(F)cn1 [Example 206, N-(4-(4,4-difluoropiperidin-1-yl)pyridin-3-yl)-5-fluoro-2-isobutyramidoisonicotinamide] | 3 | 190 | 2.1 |  |  |  |
| CC(C)C(=O)Nc1cc(C(=O)Nc2cncc(-c3ccccc3F)n2)ccn1 [Example 207, N-(6-(2-fluorophenyl)pyrazin-2-yl)-2-isobutyramidoisonicotinamide] | 2.5 | 160 | 1.1 |  |  |  |
| CC(C)(C)C(=O)Nc1cc(C(=O)Nc2cnccc2N2CCC(F)(F)CC2)ccn1 [Example 208, N-(4-(4,4-difluoropiperidin-1-yl)pyridin-3-yl)-2-pivalamidoisonicotinamide] |  | 120 | 3.1 | 4.2 |  |  |
| CC(C)(C)C(=O)Nc1cc(C(=O)Nc2cncc(-c3cccc(F)c3F)c2)ccn1 [Example 209, N-(5-(2,3-difluorophenyl)pyridin-3-yl)-2-pivalamidoisonicotinamide] |  | 2100 | 14 | 24 |  |  |
| CCC1(c2cc(Cl)ncc2NC(=O)c2ccnc(NC(=O)C(C)(C)C)c2)OCCO1 [Example 210, N-(6-chloro-4-(2-ethyl-1,3-dioxolan-2-yl)pyridin-3-yl)-2-pivalamidoisonicotinamide] | 3.6 | 250 | 1.3 |  |  |  |
| CCOc1ccncc1NC(=O)c1ccnc(NC(=O)C2CCC2)c1 [Example 211, 2-(Cyclobutanecarboxamido)-N-(4-ethoxypyridin-3-yl)isonicotinamide] |  | 72 | 0.9 | 2.2 |  |  |
| O=C(Nc1cnccc1-c1ccccc1)c1ccnc(NC(=O)C2CCC2)c1 [Example 212, 2-(Cyclobutanecarboxamido)-N-(4-phenylpyridin-3-yl)isonicotinamide] |  |  |  | 4.3 | 96 | 4.4 |
| O=C(Nc1cncc(-c2ccccc2)c1)c1ccnc(NC(=O)C2CC(F)(F)C2)c1 [Example 214, 2-(3,3-difluorocyclobutanecarboxamido)-N-(5-phenylpyridin-3-yl)isonicotinamide] |  | 490 | 2.9 | 4.1 |  |  |
| O=C(Nc1cnccc1-c1ccccc1)c1ccnc(NC(=O)C2CC(F)(F)C2)c1 [Example 216, 2-(3,3-Difluorocyclobutanecarboxamido)-N-(4-phenylpyridin-3-yl)isonicotinamide] |  | 120 | 3.4 | 1.9 |  |  |
| CC1(C)CC(C(=O)Nc2cc(C(=O)Nc3cnccc3-c3ccccc3)ccn2)C1 [Example 217, 2-(3,3-Dimethylcyclobutanecarboxamido)-N-(4-phenylpyridin-3-yl)isonicotinamide] |  | 170 | 3.2 | 1.7 |  |  |
| O=C(Nc1cnccc1-c1ccccc1)c1ccnc(NC(=O)[C@H]2C[C@H](O)C2)c1 [Example 219, 2-((1,3-Trans)-3-hydroxycyclobutanecarboxamido)-N-(4-phenylpyridin-3-yl)isonicotinamide] | 17 | 450 | 6.4 |  |  |  |
| CCOc1ccncc1NC(=O)c1ccnc(NC(=O)C2CCCC2)c1 [Example 226, 2-(Cyclopentanecarboxamido)-N-(4-ethoxypyridin-3-yl)isonicotinamide] |  | 31 | 0.41 | 0.62 |  |  |
| O=C(Nc1cnccc1-c1ccccc1)c1ccnc(NC(=O)C2CCCC2)c1 [Example 227, 2-(Cyclopentanecarboxamido)-N-(4-phenylpyridin-3-yl)isonicotinamide] |  |  |  | 1.6 | 47 | 1.4 |
| O=C(Nc1cncc2ccccc12)c1ccnc(NC(=O)C2CCCC2)c1 [Example 228, 2-(Cyclopentanecarboxamido)-N-(isoquinolin-4-yl)isonicotinamide] | 1.6 | 130 | 1.1 |  |  |  |
| O=C(Nc1cnccc1-c1ccc(Cl)cc1)c1ccnc(NC(=O)C2CCC(F)(F)C2)c1 (stereo not drawn) [Example 231, N-(4-(4-chlorophenyl)pyridin-3-yl)-2-(3,3-difluorocyclopentanecarboxamido)isonicotinamide] |  | 30 | 0.9 | 0.46 |  |  |
| O=C(Nc1cncc(-c2ccccc2)c1)c1ccnc(NC(=O)C2CCCC2)c1 [Example 232, 2-(cyclopentanecarboxamido)-N-(5-phenylpyridin-3-yl)isonicotinamide] |  | 330 | 0.51 | 1.2 |  |  |
| O=C(Nc1cncc(-c2ccccc2)c1)c1ccnc(NC(=O)C2CCC(F)(F)C2)c1 (stereo not drawn) [Example 233, 2-(3,3-difluorocyclopentanecarboxamido)-N-(5-phenylpyridin-3-yl)isonicotinamide] | 1 | 340 | 0.33 |  |  |  |
| O=C(Nc1cncc(-c2ccccc2F)c1)c1ccnc(NC(=O)C2CCC(F)(F)C2)c1 (stereo not drawn) [Example 234, 2-(3,3-difluorocyclopentanecarboxamido)-N-(5-(2-fluorophenyl)pyridin-3-yl)isonicotinamide] |  | 160 | 0.9 | 1.4 |  |  |
| O=C(Nc1cncc(-c2cccc(F)c2F)c1)c1ccnc(NC(=O)C2CCC(F)(F)C2)c1 (stereo not drawn) [Example 235, 2-(3,3-difluorocyclopentanecarboxamido)-N-(5-(2,3-difluorophenyl)pyridin-3-yl)isonicotinamide] |  |  |  | 1.4 | 130 | 0.6 |
| O=C(Nc1cncc(-c2cc(F)ccc2F)c1)c1ccnc(NC(=O)C2CCC(F)(F)C2)c1 (stereo not drawn) [Example 236, 2-(3,3-difluorocyclopentanecarboxamido)-N-(5-(2,5-difluorophenyl)pyridin-3-yl)isonicotinamide] | 4.3 | 180 | 2.1 |  |  |  |
| O=C(Nc1cncc(-c2ccccc2Cl)c1)c1ccnc(NC(=O)C2CCC(F)(F)C2)c1 (stereo not drawn) [Example 237, N-(5-(2-chlorophenyl)pyridin-3-yl)-2-(3,3-difluorocyclopentanecarboxamido)isonicotinamide] |  | 94 | 0.78 | 4.1 |  |  |
| CCC1(c2cc(Cl)ncc2NC(=O)c2ccnc(NC(=O)C3CCC(F)(F)C3)c2)OCCO1 (stereo not drawn) [Example 238, N-(6-chloro-4-(2-ethyl-1,3-dioxolan-2-yl)pyridin-3-yl)-2-(3,3-difluorocyclopentanecarboxamido)isonicotinamide] | 0.11 | 8.3 | 0.07 |  |  |  |

— patent US9809573B2, “Substituted pyridine derivatives useful as GSK-3 inhibitors” (priority 2013, dated 2017)
